Article PMC6949113, “Preclinical evaluation of AT-527, a novel guanosine nucleotide prodrug with potent, pan-genotypic activity against hepatitis C virus” (PLoS ONE, 2020)

Experiment: Rat PK study, liver and heart tissue levels
Format: in vivo, Sprague-Dawley rat
Details: 4 h after oral AT-527 500 mg/kg
Method: Rat pharmacokinetic (PK) study. Sprague-Dawley rats were obtained from SLAC Laboratory Animal Co., Ltd. (Shanghai, China), group housed (during the 3-day acclimation period) or individually housed (during the study) and provided ad libitum access to purified (reverse osmosis; RO) water and food except when fasted overnight prior to administration of test article, 4 h after which access to food was restored. Two groups of five rats (single sex/group) were administered a single dose of 500 mg/kg AT-527, suspended in 0.5% CMC-Na and 0.5% Tween 80, via nasogastric gavage followed by a vehicle flush of 3 mL (about 3 times the nasogastric tube volume). This dosage was selected because it was close to the anticipated highest dose to be used in a repeated oral dose toxicity study and would permit accurate assessments of plasma concentrations of metabolites. Blood samples (200 μL) were collected via the saphenous vein using manual restraint at 0.25, 0.5, 1, 2, 4, 6, 8, 10, 12, 24, 48 and 72 h post dose from three animals per sex, and at 0.25, 0.5, 1, 2 and 4 h post dose from two animals per sex. Blood samples were transferred to tubes containing 4 μL 0.5 M dipotassium ethylenediaminetetraacetic acid (K2EDTA) and 10 μL dichlorvos (2 mg/mL) to prevent coagulation and inhibit esterase activity, respectively, mixed and centrifuged (3000 x g, 10 min, 2–8°C) to prepare plasma samples which were quickly frozen on dry ice and stored at ≤ -80°C until LC-MS/MS analysis. […] After the 4-h blood collection, two rats per group were euthanized by CO2 inhalation followed by rapid excision and snap-freezing of the heart and liver in liquid nitrogen. The frozen organs were broken into small pieces and approximately 0.5 g of each tissue was homogenized in 5 volumes (w/v) pre-chilled homogenization solution (30% 268 mM EDTA adjusted to pH 7.2–7.4 with potassium hydroxide in MeOH) in a dry ice-ethanol bath. […]

Q: For `C[C@@]1(F)[C@H](O)[C@@H](COP(=O)(O)OP(=O)(O)OP(=O)(O)O)O[C@H]1n1cnc2c(=O)[nH]c(N)nc21` [AT-9010], which “fold higher in liver than in heart” value is on record?
A: Its value is 87 fold.

Q: What about the mean heart concentration of the same molecule?
A: Its mean heart concentration is 80 ± 41 pmol/g.

Q: What about the mean liver concentration of the same molecule?
A: The mean liver concentration was 6974 ± 2844 pmol/g.
